Data on 1 compound can be found in paper PMC4491433 (Molecular and cellular endocrinology, 2010).

Experiment [1] deals with T1, human FSH receptor (hFSHR) (Homo sapiens, UniProt P23945).
T1 sequence (P23945 18-695): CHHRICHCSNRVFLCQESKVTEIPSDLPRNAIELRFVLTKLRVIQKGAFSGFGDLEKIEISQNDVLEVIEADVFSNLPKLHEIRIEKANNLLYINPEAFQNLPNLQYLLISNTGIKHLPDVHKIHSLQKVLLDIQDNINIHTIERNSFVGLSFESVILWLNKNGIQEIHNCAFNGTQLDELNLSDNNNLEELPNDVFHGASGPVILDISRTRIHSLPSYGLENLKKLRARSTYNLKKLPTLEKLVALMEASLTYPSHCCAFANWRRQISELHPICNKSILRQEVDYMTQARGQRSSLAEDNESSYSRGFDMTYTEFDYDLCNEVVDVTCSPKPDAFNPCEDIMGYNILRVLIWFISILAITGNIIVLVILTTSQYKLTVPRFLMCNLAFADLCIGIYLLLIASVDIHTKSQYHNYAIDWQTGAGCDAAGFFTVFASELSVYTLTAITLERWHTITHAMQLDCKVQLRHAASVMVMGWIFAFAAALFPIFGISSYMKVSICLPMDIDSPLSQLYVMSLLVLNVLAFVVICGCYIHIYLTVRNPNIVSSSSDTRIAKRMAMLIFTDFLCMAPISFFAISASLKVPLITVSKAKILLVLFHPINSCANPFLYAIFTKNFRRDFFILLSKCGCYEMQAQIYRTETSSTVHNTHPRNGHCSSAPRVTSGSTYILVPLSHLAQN
Kind of experiment: HTRF cAMP inhibition. It is filed as cell-based. (In general: In TR-FRET formats the signal depends on donor and acceptor labels being close together.)

In a further experiment the target is hLH receptor (Homo sapiens, UniProt P22888). Put plainly: inhibition of LH EC80 response at hLH receptor. It is filed as cell-based.
hLH receptor, sequence (P22888 27-699): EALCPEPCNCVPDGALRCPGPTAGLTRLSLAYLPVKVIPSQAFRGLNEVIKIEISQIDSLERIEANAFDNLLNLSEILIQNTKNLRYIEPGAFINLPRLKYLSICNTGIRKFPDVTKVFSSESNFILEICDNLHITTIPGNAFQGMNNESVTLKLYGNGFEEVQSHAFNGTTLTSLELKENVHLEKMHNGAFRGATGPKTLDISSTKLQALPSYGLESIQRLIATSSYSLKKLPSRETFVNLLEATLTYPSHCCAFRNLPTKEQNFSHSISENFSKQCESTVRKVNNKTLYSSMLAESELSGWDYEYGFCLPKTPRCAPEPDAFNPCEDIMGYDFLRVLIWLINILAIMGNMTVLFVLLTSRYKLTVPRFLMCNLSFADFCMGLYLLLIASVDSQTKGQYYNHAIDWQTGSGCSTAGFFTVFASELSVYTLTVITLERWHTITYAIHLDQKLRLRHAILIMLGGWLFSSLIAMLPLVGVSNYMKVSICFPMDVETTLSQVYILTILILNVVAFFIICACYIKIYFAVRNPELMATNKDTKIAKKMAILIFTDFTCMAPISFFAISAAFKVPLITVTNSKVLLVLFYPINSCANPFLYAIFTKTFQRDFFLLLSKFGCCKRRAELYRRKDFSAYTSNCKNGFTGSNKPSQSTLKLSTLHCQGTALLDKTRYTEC

For the compound `COc1ccc(C(=O)Nc2ccc(C(C)(C)C#N)cc2)cc1OC` [ADX61623], the IC50 (in general, the concentration at which inhibition is half-maximal) in experiment [1] was 700 ± 200 nM; against hLH receptor, 3400 ± 800 nM.
